# Source: patent US20250230163A1, “SOLID FORMS OF HIV INTEGRASE INHIBITORS” (Gilead Sciences, Inc., priority 2023, published 2025)
# Columns and labels:
# [1] = Hygroscopicity by dynamic vapor sorption (DVS); type: physicochemical; details: for solid form post DVS experiment: after sorption/desorption cycle up to 95% RH at 25° C.; for water absorbed (dynamic vapor sorption): up to 95% RH at 25° C.
# Experimental: Hygroscopicity was studied using dynamic vapor sorption (DVS, TA Q5000 SA, TA Instruments, New Castle, DE or DVS, DVS Intrinsic, Surface Measurement Systems, London, UK). A sample (1-20 mg) was placed in an aluminum DVS pan and loaded on the sample side of the twin pan balance. The water sorption and desorption were studied as a function of relative humidity (RH) at 25° C. In 10% RH increments, the relative humidity was increased from 5% RH to 95% RH and then decreased back to 5%. […] Data analysis was performed using Universal Analysis 2000 Version 4.7A (TA Instruments, New Castle, DE) for TA DVS runs and Microsoft Excel for SMS DVS runs.
# [2] = Physical form stability on drying under ambient conditions; type: physicochemical
# From the text: Compound of Formula I, Form II is a metastable methanol solvated phase. It was isolated when compound of Formula I, Form I was slurried in methanol for about 60 days and identified by x-ray of the wet cake. […] Compound of Formula I, Form III was also made when Form II was dried under ambient conditions.
solid form post DVS experiment [1],water absorbed (dynamic vapor sorption) [1],SMILES,form conversion upon drying [2]
not have changed form,about 3.5%,"O=C(NCc1c(F)cc(F)cc1F)c1cn2c(c(O)c1=O)C(=O)N1CCCC[C@H]2C1 [Compound of Formula I, Form IV, (7S)-12-hydroxy-1,11-dioxo-N-(2,4,6-trifluorobenzyl)-1,4,5,6,7,11-hexahydro-3H-2,7-methanopyrido[1,2-a][1,4]diazonine-10-carboxamide]",
,,"O=C(NCc1c(F)cc(F)cc1F)c1cn2c(c(O)c1=O)C(=O)N1CCCC[C@H]2C1 [Compound of Formula I, Form II, (7S)-12-hydroxy-1,11-dioxo-N-(2,4,6-trifluorobenzyl)-1,4,5,6,7,11-hexahydro-3H-2,7-methanopyrido[1,2-a][1,4]diazonine-10-carboxamide]","convert to compound of Formula I, Form III"
not have changed form,about 0.097%,"O=C(NCc1c(F)cc(F)cc1F)c1cn2c(c(O)c1=O)C(=O)N1CCCC[C@H]2C1 [Compound of Formula I, Form I, (7S)-12-hydroxy-1,11-dioxo-N-(2,4,6-trifluorobenzyl)-1,4,5,6,7,11-hexahydro-3H-2,7-methanopyrido[1,2-a][1,4]diazonine-10-carboxamide]",
not have changed form,about 0.87%,"O=C(NCc1c(F)cc(F)cc1F)c1cn2c(c(O)c1=O)C(=O)N1CCCC[C@H]2C1 [Compound of Formula I, Form III, (7S)-12-hydroxy-1,11-dioxo-N-(2,4,6-trifluorobenzyl)-1,4,5,6,7,11-hexahydro-3H-2,7-methanopyrido[1,2-a][1,4]diazonine-10-carboxamide]",
